Experimental data: patent US6960582B2, “Guanidino compounds” (Chiron Corporation, priority 2001, dated 2005)
pEC50: −log10 of the molar value.

Target: MC4-R (Homo sapiens, UniProt P32245)
Test: cAMP Scintillation Proximity Assay (SPA) in cells expressing MC4-R
Type: cell-based
Settings: intercellular cAMP concentration by SPA kit, read-out: in vitro potency (as measured by EC50 value)
Description: EC50 values of test compounds were determined by treating cells expressing MC4-R with test compound and lysing the cells and measuring intercellular cAMP concentration with an Amersham-Pharmacia RPA-559 cAMP Scintillation Proximity Assay (SPA) kit. The following compounds were synthesized and tested according to this assay. The following compounds are merely illustrative and should not be construed as limiting of the instant invention.

Sequence of MC4-R (P32245 whole entry, species assumed): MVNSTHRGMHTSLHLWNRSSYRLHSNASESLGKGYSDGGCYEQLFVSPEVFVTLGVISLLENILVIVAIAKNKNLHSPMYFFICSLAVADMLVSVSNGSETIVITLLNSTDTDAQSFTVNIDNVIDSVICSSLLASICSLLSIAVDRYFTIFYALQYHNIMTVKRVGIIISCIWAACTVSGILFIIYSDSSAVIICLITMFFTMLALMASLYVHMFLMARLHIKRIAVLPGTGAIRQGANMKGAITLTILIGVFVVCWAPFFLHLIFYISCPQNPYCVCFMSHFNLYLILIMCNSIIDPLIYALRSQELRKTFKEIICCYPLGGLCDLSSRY

Row | pEC50 | SMILES
1 | > 5.52 | C[C@@H]1[C@@H](N=C(Nc2ccc3nc(CCc4ccc(F)cc4Cl)[nH]c3c2)N2CCN[C@@H](C)C2)C[C@H]2C[C@@H]1C2(C)C [Example 25, (3S)-N-{2-[2-(2-chloro-4-fluorophenyl)ethyl]-1H-benzimidazol-6-yl}-3-methyl-N′-[(1S,2S,3S,5R)-2,6,6-trimethylbicyclo[3.1.1]hept-3-yl]piperazine-1-carboximidamide]
2 | > 5.52 | C[C@@H]1[C@@H](N=C(Nc2ccc3c(c2)CN(CCc2ccc(Cl)cc2Cl)C3=O)N2CCN[C@@H](C)C2)C[C@H]2C[C@@H]1C2(C)C [Example 1, (3S)-N-{2-[2-(2,4-dichlorophenyl)ethyl]-1-oxo-2,3-dihydro-1H-isoindol-5-yl}-3-methyl-N′-[(1S,2S,3S,5R)-2,6,6-trimethylbicyclo[3.1.1]hept-3-yl]piperazine-1-carboximidamide]
